{"source": "patent US10111929B1", "about": "“Growth hormone releasing factor analogs and uses” (EZ IP, LLC, priority 2017, dated 2018)", "format_in_all_cases": "in vivo", "key": {"[1]": {"assay": "Human clinical trials: ultrasound-based body composition analysis and body weight", "conditions": "all study participants in both clinical trials", "method": "(§1) Two challenges were being considered at the beginning of the human clinical trial. The first challenge was to document the stand-alone efficacy of HTA-8 as a new growth hormone releasing factor. The second was to determine if HTA-8 could be combined with other common releasing factors to create an even better result. As such, two separate trials were conducted. • Trial #1/HTA-8: Ten individuals ranging in age from 30 to 69 years were given 30 ng of HTA-8 in the form of an aerosolized oral spray before bed, over a 30-32 day period. • Trial #2/HTA-8+: Fifteen individuals ranging in age from 38 to 70 years of age were given an effervescent tablet to take once daily over a 25-36 day period that contained 20 ng of HTA-8 in combination with 1200 mg each of the amino acids lysine and arginine. (Previous published experimentation has shown that the combination of lysine and arginine in the doses used in Trial #2 is an effective GH releasing factor.)"}, "[2]": {"test_system": "IGF-1", "assay": "Human clinical trials: IGF-1 concentrations in participant blood samples", "method": "as §1\nThe principal hormone measured in order to establish whether there is an increase in growth hormone secretion is IGF-1. IGF-1 concentrations and total cholesterol levels were determined by collecting participant blood samples at the beginning of the studies and at their conclusion."}, "[3]": {"assay": "Human clinical trials: radial bone density by ultrasonographic technique", "conditions": "subjects taking HTA-8 alone (Trial #1)", "method": "as §1\nAn increase in bone density decreases the chance of fracture and […]. Bone density is a particularly important issue as the body ages, regardless of sex. During the Clinical Trials, radial bone density was measured using an ultrasonographic technique."}, "[4]": {"test_system": "total cholesterol", "assay": "Human clinical trials: total cholesterol levels in participant blood samples", "conditions": "majority of clinical trial participants; with or without amino acids; absence of additional measures", "method": "as §1\nThe principal hormone measured in order to establish whether there is an increase in growth hormone secretion is IGF-1. IGF-1 concentrations and total cholesterol levels were determined by collecting participant blood samples at the beginning of the studies and at their conclusion. […]"}}, "data": [{"substance": "H-D-Ala-D-2-Nal-Trp-H is-Trp-D-Phe-Lys-N H2 [HTA-8]", "values": [{"measurement": "change in adipose tissue mass", "setting": "[1]", "value": "decrease in adipose tissue mass"}, {"measurement": "change in lean muscle mass", "setting": "[1]", "value": "increase in lean muscle mass"}, {"measurement": "maximum IGF-1 level measured in all clinical trial participants after the study period", "setting": "[2]; Trial #1: 30 ng HTA-8 oral spray before bed, 30-32 days, person", "value": 410, "unit": "ng/mL"}, {"measurement": "GHRF activity (IGF-1 response)", "setting": "[2]; Trial #1: HTA-8 alone, oral spray", "value": "bona fide, stand-alone GHRF"}, {"measurement": "IGF-1 level on average, after (increased to)", "setting": "[2]; Trial #2: effervescent tablet once daily, 20 ng HTA-8 with 1200 mg each lysine and arginine, after 25-36 day period", "value": 202, "unit": "ng/mL"}, {"measurement": "IGF-1 level on average, before (increased from)", "setting": "[2]; Trial #2: effervescent tablet once daily, 20 ng HTA-8 with 1200 mg each lysine and arginine, beginning of study", "value": 170, "unit": "ng/mL"}, {"measurement": "average increase in bone density", "setting": "[3]", "value": 6.8, "unit": "%"}, {"measurement": "change in total cholesterol levels over the study period", "setting": "[4]", "value": "clinically significant decrease"}]}]}
